Results published in patent publication US12202790B2, “Sulfonamide derivatives having selective Nox inhibiting activity” (GLUCOX BIOTECH AB, priority 2018, dated 2025).

Test system: C57B16/J mice
Assay: Mouse model of acute ischemic stroke by transient middle cerebral artery occlusion (tMCAO)
Format: in vivo
Conditions: 2.56 mg/kg ip, 6 times once per hour, from 1 hour after reperfusion or 30 min before reperfusion, 24 h
Experimental: A mouse model of acute ischemic stroke by transient middle cerebral artery occlusion (tMCAO) was used. The model has been described by Kleinschnitz C, et al. 2010, J Exp Med 203(3):513-518. C57B16/J mice were anesthetized with isoflurane (0.8% in oxygen). The animal was placed on a heating-pad, and rectal temperature was maintained at 37.0° C. using a servo-controlled rectal probe-heating pad (Cibertec, Spain). Transient cerebral ischemia was induced using an intraluminal filament technique. Using a surgical microscope (Tecnoscopio OPMI pico, Carl Zeiss, Meditec Iberia SA, Spain), a midline neck incision was made and the right common and external carotid arteries were isolated and permanently ligated. […]
After sacrificing the mice (24 h reperfusion), brains were quickly removed and cut in four 2-mm thick coronal sections using a mouse brain slice matrix (Harvard Apparatus, Spain). […] Indirect infarct volumes were calculated by volumetry (ImageJ software, National Institutes of Health, USA) according to the following equation: Vindirect (mm^3)=Vinfarct×(1−(Vih−Vch)/Vch), where the term (Vih−Vch) represents the volume difference between the ischemic hemisphere and the control hemisphere and (Vih−Vch)/Vch expresses this difference as a percentage of the control hemisphere (FIGS. 7 and 9).

## Cc1ccccc1CCNS(=O)(=O)c1c(Cl)cc(Br)cc1Cl [Example 17, 4-bromo-2,6-dichloro-N-[2-(2-methylphenyl)ethyl]benzene-1-sulfonamide]
  brain damage (TTC stained coronal brain sections): significant reduction in brain damage
Compared to control animals
  infarct volume: substantial reduction of infarct volume
